Two compounds from patent publication US9611272B2, “Polymorphic forms of icotinib and uses thereof” (BETTA PHARMACEUTICALS CO., LTD, priority 2013, dated 2017) can be followed below.

Molecules are shown by their SMILES. Where a name gives a salt, the structure may show the parent alone. Read-outs that look alike come from different tables or passages of the source.

The series in a line: Pharmacokinetic study of Icotinib hydrochloride and Polymorph Form II of Icotinib, oral suspension, plasma by HPLC. The format is in vivo. Conditions: fasted male SD rats, oral suspension in sodium carboxymethyl cellulose, dose equivalent to 50 mg/kg Icotinib. From the text: Pharmacokinetic Study of Icotinib Hydrochloride and the Polymorph Form II of Icotinib
Drugs and reagents: the Icotinib hydrochloride used in this study was of Crystalline Form I disclosed by the WO2010/003313. Polymorph Form II of Icotinib and Icotinib hydrochloride were ground to fine particles. The material content (purity) was not less than 99.0%. Sodium carboxymethyl cellulose was medical supply graded.
Experimental animals: SD rats were divided to the Icotinib hydrochloride group and a Polymorph Form II group.
Pharmaceutical preparation: the amount of each compound was weighed and then sodium carboxymethyl cellulose was added to result in the test compound's concentration of 0.5%. The solid mixture was then added to prepare a suspension thereof at a final concentration of […] in water.
Administration and sample collection: each suspension was administered orally to fasted SD rats at a dose equivalent to 50 mg/kg Icotinib in a dose volume of 5 ml/kg. 0.4 ml of blood was collected in EDTA-K pre anticoagulant tubes at time intervals of 0.5, 1, 1.5, 2, 4, 6, 8 and 24 hours after the administration of the test compound, centrifuged at 3000 rpm for 10 minutes, and 120 μl plasma was collected and kept in cold storage.
Samples were analyzed by high performance liquid chromatography. The chromatographic conditions utilized C18-silane bonded silica as stationary phase, 0.02 mol/L of sodium dihydrogen phosphate in acetonitrile (40:60, using sodium hydroxide solution to adjust pH to 5.0) as the mobile phase and a detection wavelength of 334 nm.

As for `C#Cc1cccc(Nc2ncnc3cc4c(cc23)OCCOCCOCCO4)c1` [Icotinib hydrochloride], the Tmax (hydrochloride) came to 1.3 ± 1.1 h. Under “male, SD, rat, po, 50 mg/kg”, the AUC(0-inf) turned out to be 39800 ± 28500 ng·h/mL and the half-life is 3.1 ± 1.4 h. Further, the AUC(0-t) (male, SD, rat, po, 50 mg/kg, read-out: AUC(0-24)) is 39200 ± 27600 ng·h/mL. The Cmax (male, SD, rat, po, 50 mg/kg, read-out: Cmax) is 4900 ± 2600 ng/mL.

With `C#Cc1cccc(Nc2ncnc3cc4c(cc23)OCCOCCOCCO4)c1` [Polymorph Form II of Icotinib, Icotinib], the “AUC(0-24)” value was found to be 62400 ± 30100 ng·h/mL, the “AUC(0-∞)” value amounted to 63000 ± 30000 ng·h/mL, the highest concentration (Cmax) came to 5800 ± 2600 ng/mL and the T1/2 was determined as 3.5 ± 0.6 h. Also, the Tmax turned out to be 4.5 ± 2.6 h.

As a reminder, the Tmax is the time at which the peak concentration occurs. The term AUC(0-inf) denotes total exposure, with the tail of the curve extrapolated. As a reminder, the half-life is how long it takes for the measured level to halve. The Cmax is the peak of the concentration-time curve.
